Data taken from patent US20200237700A1, “METHODS OF REDUCING OR PREVENTING OXIDATION OF SMALL DENSE LDL OR MEMBRANE POLYUNSATURATED FATTY ACIDS” (Amarin Pharmaceuticals Ireland Limited, priority 2015, published 2020).

Legend:
[1] = system: HUVECs challenged with oxLDL; experiment: NO and ONOO− release from HUVECs pretreated with agents, then oxLDL (Example 11, Objective 1); type: cell-based, human; details: pretreated 30 min at 10 μM, then oxLDL 11 mg/dL up to 3 hr, calcium ionophore 1.0 μM
Method: The omega-3 fatty acid, cis-5,8,11,14,17-eicosapentaenoic acid (EPA) and docosahexaenoic acid (DHA) were purchased from Sigma-Aldrich (Saint Louis, Mo.) and solubilized in redistilled ethanol to 11 mM under nitrogen atmosphere. EPA and DHA stock solutions were stored at −20° C. until use.
Human umbilical vein endothelial cells (HUVECs) were obtained from healthy, female donors and isolated into primary, proliferating cell cultures (Clonetics, San Diego, Calif.). […] The confluent cells (4 to 5×10^5 cells/35 mm dish) were plated with minimum essential medium containing 3 mM L-arginine and 0.1 mM BH4 [(6R)-5,6,7,8-tetrahydrobiopterin]. Before experimental use, the cells (from second or third passage) were rinsed twice with Tyrode-HEPES buffer with 1.8 mM CaCl2. […]
LDL underwent oxidation following the addition of 10 μM CuSO4. […] Sample TBARS concentrations were determined spectrophotometrically by measuring sample absorbances against a standard curve derived from the hydrolysis of 1,1,3,3-tetramethoxypropane. […]
The amperometric method (with a response time of 0.1 ms) provides a quantitative signal (current) that is directly proportional to changes (from basal levels) in NO or ONOO^− concentration. […] Basal NO or ONOO^− levels were measured by differential pulse voltammetry in separate experiments. […]
NO and ONOO^− release were measured following stimulation with calcium.

human sdLDL = experiment: Copper-induced sdLDL oxidation, TBARS after 2 hr (Example 6); type: biochemical; details: 10 μM CuSO4
Method: An experiment to study the antioxidant effect of EPA in small dense […] performed. […] Vitamin E (α-tocopherol) was purchased from Sigma-Aldrich and prepared in ethanol at 1.0 mM (ε=3.06×10^4 M^-1 cm^-1 at 294 nm) just prior to experimental use. All test compounds were further diluted in ethanol or aqueous buffer as needed. Venous blood was collected from healthy volunteers into vacutainer tubes containing sodium EDTA. Plasma was separated by centrifugation at 3000 g for 25 min at 4° C. and adjusted to a density of 1.020 g/mL with KBr. Triglyceride-rich lipoproteins (TGRL) and LDL fractions were then isolated by sequential centrifugation at 70,000 rpm at 4° C. in a Beckman LE-80 ultracentrifuge using a Beckman 50.4Ti rotor (Beckman Coulter, Inc., Fullerton, Calif.). The TGRL fraction (with a relative density of <1.020) was aspirated from the top of the centrifugate and discarded, leaving an LDL-enriched […] relative density of 1.020 to 1.063). […] The sdLDL subfraction was retained for additional experimentation. Plasma and lipoprotein fractions were maintained at 4° C. and protected from excessive exposure to light. Prior to oxidation experiments, EDTA was removed from the lipoprotein fraction using PD-10 desalting columns (GE Healthcare, Piscataway N.J.). After equilibration of the column with phosphate buffered saline (PBS), 2.5 mL of the lipoprotein fraction was loaded on the column and the flow-through discarded. The lipoprotein was then eluted with 3 mL of PBS. The LDL fractions were further diluted with PBS to obtain a 100 μg/mL apoB100 concentration. […] Data are presented as mean±S.D. for (N) separate samples or treatment groups. Differences between groups were analyzed using the two-tailed, Student's t-test (for comparisons between only two groups) or ANOVA followed by Dunnett or Student-Newman-Keuls multiple comparisons post-hoc analysis (for comparisons between three or more groups).

HUVECs = experiment: NO release from HUVECs incubated with treated, oxidized sdLDL samples (Example 12); type: cell-based, human; details: EPA-treated
Method: All samples, with the exception of non-oxidized sdLDL controls, were subjected to copper-induced oxidation for 1 hour. Human umbilical vein endothelial cells (HUVECs) were incubated with the various sdLDL samples, stimulated with calcium, and monitored for nitric oxide (NO) and peroxynitrite (ONOO^−) release using nanosensor technology.

[2] = LOOH formation in glucose-treated model membranes, EPA versus EA and ETE (Example 5); type: biochemical; details: 72 and 96 hr
Method: An experiment was conducted to compare the ability of EPA to prevent lipid hydroperoxide formation in model membranes treated with glucose to two other 20-carbon fatty acids: eicosanoic acid (“EA,” also referred to as arachidic acid, C20:0) and eicosatrienoic acid (“ETE,” C20:3, n−3). All MLV samples were subjected to time-dependent autoxidation by incubating at 37° C. in an uncovered, shaking water bath. This method allows lipid peroxidation to occur gradually without requiring the use of exogenous initiators. Small aliquots (5-100 μL) of each sample were removed, immediately following MLV preparation (0 hr) and after exposing samples to oxidative conditions for 72 or 96 hr, and combined with 1.0 mL of activated CHOD-iodide color reagent. Aliquot volume was reduced with each successive time point to ensure that spectrophotometric readings were within the optimal adsorption range. Test samples were covered and incubated in darkness at room temperature for at least 4 hr. Sample absorbances were then measured against a CHOD blank at 365 nm using a Beckman DU-640 spectrophotometer. The CHOD colorimetric assay is based on the oxidation of iodide (I^−) by lipid hydroperoxide (LOOH) to form triiodide (I3^−), the quantity of which is directly proportional to the amount of LOOH present in the lipid sample. The molar absorptivity (E) of I3^− is 2.46×10^4 M^−1 cm^−1 at 365 nm.

Row | Compound | NO/ONOO− Ratio [1] | NO/ONOO− Ratio ([1]; listed as Niacin) | reduced TBARS levels compared to vehicle-treated controls (human sdLDL; 1.0 μM) [%] | reduced TBARS levels compared to vehicle-treated controls (human sdLDL; 10.0 μM) [%] | NO release increased as compared to non-oxidized sdLDL treatment (HUVECs) [%] | NO release increased as compared to oxidized LDL treatment (HUVECs) [%] | LOOH formation compared to vehicle only, glucose only, glucose and EA, glucose and ETE [2]
1 | O=C(O)c1cccnc1 [niacin, nicotinic acid] | 1.45±0.14 | 1.45 ± 0.14 | – | – | – | – | –
2 | CC/C=C\C/C=C\C/C=C\C/C=C\C/C=C\CCCC(=O)O [EPA, cis-5,8,11,14,17-eicosapentaenoic acid] | – | – | 13 | 57 | 23 | 53 | significantly less LOOH formation
